Measured values from patent US20250186374A1 (priority 2022, published 2025).
pEC50, pIC50, pKd: −log10 of the molar value. “Also recorded” adds a separate entry of the source. Read-outs that look alike come from different tables or passages of the source.

Key:
SARS-CoV-2 [1] = assay: microbe, parasite or virus in culture; assay type: cell-based
SARS-CoV-2 3CLpro [2] = molecular target: T1, SARS-CoV-2 3CLpro (Severe acute respiratory syndrome coronavirus 2, UniProt P0DTD1); assay: Surface plasmon resonance binding to immobilized 3CLpro; settings: 0.164-100 μM, 25° C.
SARS-CoV-2 3CLpro [3] = molecular target: T1, SARS-CoV-2 3CLpro; assay: biochemical; assay type: biochemical; settings: for inhibitory activity in library screen: compound concentration of 100 μM
SARS-CoV-2 [4] = assay: Clinical examples 1-3, treatment of COVID-19 / SARS-CoV-2 positive subjects; assay type: in vivo
Text: Example 1: The following example describes treatment strategies for COVID-19 involving oral administration of an antiviral composition.
A physician diagnoses a patient with COVID-19. The patient is experiencing mild symptoms. […] The patient is to take the tablet once a day for one week. The patient is highly responsive and their symptoms go away after 2 days.
Example 2: The following example describes treatment strategies for intravenous administration of an antiviral composition.
A diabetic patient is hospitalized with severe COVID-19. […] The medication is added to an IV solution and delivered intravenously, twice a day for three days. The patient is highly responsive and experiences a reduction in their symptoms during the initial treatment period.
A subject tests positive for SARS-CoV-2 but is asymptomatic. […] The subject sprays the inside of their nose once a day for 5 days. The subject remains asymptomatic.

SARS-CoV-2 3CLpro [5] = molecular target: T1, SARS-CoV-2 3CLpro; assay: Enzyme kinetics, Lineweaver-Burk plots; assay type: biochemical; settings: for Inhibition Type: Michaelis-Menten kinetics; for effect on Vmax of 3CLpro: compared to the DMSO control, 5 μM or 10 μM inhibitor
SARS-CoV-2 3CLpro [6] = molecular target: T1, SARS-CoV-2 3CLpro; assay: Inhibition of cleavage of TriPro substrate protein, SDS-PAGE; assay type: biochemical; settings: 0.8 μM 3CLpro
SARS-CoV-2 3CLpro [7] = molecular target: T1, SARS-CoV-2 3CLpro; assay: Microscale thermophoresis ligand binding; settings: 10 nM labeled 3CLpro; read-out: KD (MST)
Text: Monolith NT.115 Microscale Thermophoresis (MST) instrument (NanoTemper Technologies) was used for this assay. Monolith protein labeling kit RED-NHS was purchased from NanoTemper Technologies. Briefly, 3CLpro protein was labeled using RED-NHS labelling kit (NanoTemper) following the manufacturer's instructions. […] The assay was read in 20% excitation power and medium MST power.

SARS-CoV 3CLpro = SARS-CoV 3CLpro (Severe acute respiratory syndrome coronavirus, UniProt P0C6X7); settings: cited from earlier work
SARS-CoV-2 3CLpro [8] = molecular target: T1, SARS-CoV-2 3CLpro; settings: at 50 μM concentration; cited from earlier work
SARS-CoV = settings: cited from earlier work
[9] = Severe acute respiratory syndrome coronavirus 2, Table 2 and text, SARS-CoV-2 viral replication, cell-based antiviral assay
[10] = Severe acute respiratory syndrome coronavirus 2, 48 h
[11] = FRET peptide substrate, 200 nM 3CLpro, read-out: SARS-CoV-2 3CLpro IC50

CC(C)(C)NC(=O)N[C@H](C(=O)N1C[C@H]2[C@@H]([C@H]1C(=O)NC(CC1CCC1)C(=O)C(N)=O)C2(C)C)C(C)(C)C (some centres unmarked) [Boceprevir, boceprevir, reference compound] showed a pEC50 (SARS-CoV-2 [1]; [9]) of 4.81.
O=C(Nc1ccc([N+](=O)[O-])cc1Cl)c1cccc([N+](=O)[O-])c1O [JMX0207] gave a CC50 at 48 h (in vitro) of 13.2 µM and a pEC50 (SARS-CoV-2 [1]; [10]) of 5.91.
CC(C)[C@H](NC(=O)c1cc(Cl)ccc1O)C(=O)Nc1ccc([N+](=O)[O-])cc1Cl [JMX0281] showed a CC50 at 48 h (in vitro) of 8.32 µM and a pEC50 (SARS-CoV-2 [1]; [10]) of 5.68.
Work on O=C(NC(Cc1ccccc1)C(=O)Nc1ccc([N+](=O)[O-])cc1Cl)c1cc(Cl)ccc1O (centres unmarked) [JMX0285] yielded a CC50 at 48 h (in vitro) of 6.13 µM and a pEC50 (SARS-CoV-2 [1]; [10]) of 5.52.
For Cl.NCCOc1ccc(Cl)cc1C(=O)NCC(=O)Nc1ccc([N+](=O)[O-])cc1Cl [JMX0286, 2-(2-Aminoethoxy)-5-chloro-N-(2-((2-chloro-4-nitrophenyl)amino)-2-oxoethyl)benzamide hydrochloride], the pKd (SARS-CoV-2 3CLpro [2]; read-out: KD (SPR, steady-state affinity model)) was 5.01, the pIC50 (SARS-CoV-2 3CLpro [3]; [11]) was 5.32 and the “inhibitory activity in library screen” value (SARS-CoV-2 3CLpro [3]) was “prominent inhibitory activity”. For the same molecule, the CC50 (A549 and Vero E6 cells; Table 1, cell line not given) was 3.78 µM, the pEC50 (SARS-CoV-2 [1]; [10]) was 5.65 and the side effects (SARS-CoV-2 [4]; Example 1: oral tablet 50 mg once a day for one week) was “No side effects are reported”. For the same molecule, the clinical outcome (SARS-CoV-2 [4]; Example 1: oral tablet 50 mg once a day for one week, mild COVID-19) was “completely recovers”, the “Inhibition Type” value (SARS-CoV-2 3CLpro [5]; hydrochloride) was “non-competitive inhibition mechanism” and the “effect on Vmax of 3CLpro” value (SARS-CoV-2 3CLpro [5]) was “reduced the Vmax values”. For the same molecule, the “inhibition of cleavage of the TriPro substrate protein” value (SARS-CoV-2 3CLpro [6]; hydrochloride) was “inhibited the cleavage of the TriPro substrate protein in a dose dependent manner; also recorded: inhibit the digestion of protein substrates in a dose dependent manner”.
For CC(C)(C)OC(=O)NCCOc1ccc(Cl)cc1C(=O)NCC(=O)Nc1ccc([N+](=O)[O-])cc1Cl [JMX0301, tert-Butyl(2-(4-chloro-2-((2-((2-chloro-4-nitrophenyl)amino)-2-oxoethyl)carbamoyl)phenoxy)ethyl)carbamate], the “KD (SPR, steady-state affinity model)” value (SARS-CoV-2 3CLpro [2]) was “did not show binding”, the pIC50 (SARS-CoV-2 3CLpro [3]; [11]) was 5.35 and the “inhibitory activity in library screen” value (SARS-CoV-2 3CLpro [3]) was “prominent inhibitory activity”. The “EC50 (μM)” value (SARS-CoV-2 [1]; Table 2, SARS-CoV-2 viral replication, cell-based antiviral assay) was “No Dose”, the clinical outcome (SARS-CoV-2 [4]; Example 2: 100 mg with remdesivir 100 mg intravenously twice a day for three days, then 50 mg tablet, severe COVID-19) was “completely recovers” and the side effects (SARS-CoV-2 [4]; Example 2: intravenous with remdesivir, then tablet) was “No side effects are reported”. For the same molecule, the pKd (SARS-CoV-2 3CLpro [7]) was 4.47, the “Inhibition Type” value (SARS-CoV-2 3CLpro [5]) was “non-competitive inhibition mechanism” and the “effect on Vmax of 3CLpro” value (SARS-CoV-2 3CLpro [5]) was “reduced the Vmax values”. For the same molecule, the “inhibition of cleavage of the TriPro substrate protein” value (SARS-CoV-2 3CLpro [6]) was “inhibited the cleavage of the TriPro substrate protein in a dose dependent manner; also recorded: inhibit the digestion of protein substrates in a dose dependent manner”.
With O=C(Nc1ccc(C(F)(F)F)cc1Cl)c1cc(Cl)ccc1O [JMX0308] the “EC50 value (strong inhibition of SARS-CoV-2 virus)” value (SARS-CoV-2 [1]) was “sub-micromolar range” and the pEC50 (SARS-CoV-2 [1]; [10]) was 6.09.
Work on O=C(Nc1ccc(C(F)(F)F)cc1Cl)c1cccc([N+](=O)[O-])c1O [JMX0310, N-(2-Chloro-4-(trifluoromethyl)phenyl)-2-hydroxy-3-nitrobenzamide] yielded a CC50 (A549 and Vero E6 cells; Table 1, cell line not given) of 10.1 µM and a pEC50 (SARS-CoV-2 [1]; [10]) of 5.62.
In the case of O=C(Nc1cc(F)cc(C(F)(F)F)c1)c1cc(Cl)ccc1O [JMX0312], the CC50 at 48 h (in vitro) was 1.97 µM and the pEC50 (SARS-CoV-2 [1]; [10]) was 5.95.
In the case of O=C(Nc1cc(F)cc(C(F)(F)F)c1)c1cccc([N+](=O)[O-])c1O [JMX0317, N-(3-Fluoro-5-(trifluoromethyl)phenyl)-2-hydroxy-3-nitrobenzamide], the CC50 (A549 and Vero E6 cells; Table 1, cell line not given) was 11.7 µM and the pEC50 (SARS-CoV-2 [1]; [10]) was 5.40.
For O=C(Nc1ccc(F)c(F)c1)c1cc(Cl)ccc1O [JMX0321], the CC50 at 48 h (in vitro) was 3.76 µM and the pEC50 (SARS-CoV-2 [1]; [10]) was 5.93.
With O=C(Nc1cc(C(F)(F)F)cc(C(F)(F)F)c1)c1cc(Cl)ccc1O [JMX0325] the CC50 at 48 h (in vitro) was 1.81 µM, the “EC50 value (strong inhibition of SARS-CoV-2 virus)” value (SARS-CoV-2 [1]) was “sub-micromolar range” and the pEC50 (SARS-CoV-2 [1]; [10]) was 6.91.
With O=C(Nc1cc(C(F)(F)F)cc(C(F)(F)F)c1)c1cccc([N+](=O)[O-])c1O [JMX0330, N-(3,5-Bis(trifluoromethyl)phenyl)-2-hydroxy-3-nitrobenzamide] the CC50 (A549 and Vero E6 cells; Table 1, cell line not given) was 10.2 µM, the “EC50 value (strong inhibition of SARS-CoV-2 virus)” value (SARS-CoV-2 [1]) was “sub-micromolar range” and the pEC50 (SARS-CoV-2 [1]; [10]) was 6.30.
In the case of CC1(Nc2ccc(NC(=O)c3cc(Cl)ccc3O)c(Cl)c2)CCCC1 [JMX0510-2], the CC50 (A549 and Vero E6 cells) was 11.5 µM and the pEC50 (SARS-CoV-2 [1]) was 5.31.
In the case of CC(C)C[C@H](NC(=O)c1cc(Cl)ccc1O)C(=O)Nc1ccc([N+](=O)[O-])cc1Cl [JMX0671], the CC50 at 48 h (in vitro) was 8.03 µM and the pEC50 (SARS-CoV-2 [1]; [10]) was 5.81.
In the case of CC(C)[C@H](NC(=O)c1cc(Cl)ccc1O)C(=O)Nc1ccc(C(F)(F)F)cc1Cl [JMX0672], the CC50 at 48 h (in vitro) was 8.34 µM and the pEC50 (SARS-CoV-2 [1]; [10]) was 5.72.
Work on CCC(C)[C@H](NC(=O)c1cc(Cl)ccc1O)C(=O)Nc1ccc([N+](=O)[O-])cc1Cl (some centres unmarked) [JMX0673] yielded a CC50 at 48 h (in vitro) of 5.2 µM and a pEC50 (SARS-CoV-2 [1]; [10]) of 5.76.
With C[C@H](NC(=O)c1cc(Cl)ccc1O)C(=O)Nc1ccc([N+](=O)[O-])cc1Cl [JMX0674] the CC50 at 48 h (in vitro) was > 10 µM and the pEC50 (SARS-CoV-2 [1]; [10]) was 5.01.
For CC(C)[C@H](NC(=O)c1cc(Cl)ccc1O)C(=O)Nc1cc(C(F)(F)F)cc(C(F)(F)F)c1 [JMX0679], the CC50 at 48 h (in vitro) was 7.14 µM and the pEC50 (SARS-CoV-2 [1]; [10]) was 5.60.
With CC(C)[C@H](NC(=O)c1cc(Cl)ccc1O)C(=O)Nc1cc(F)cc(C(F)(F)F)c1 [JMX0680] the CC50 at 48 h (in vitro) was 10.1 µM and the pEC50 (SARS-CoV-2 [1]; [10]) was 5.34.
With CC(C)[C@H](NC(=O)c1cc(Cl)ccc1O)C(=O)Nc1ccc(F)c(F)c1 [JMX0681] the CC50 at 48 h (in vitro) was > 10 µM and the pEC50 (SARS-CoV-2 [1]; [10]) was 5.01.
For O=C(Nc1cc(F)cc(C(F)(F)F)c1)c1ccc(Cl)cc1O [JMX0887], the CC50 at 48 h (in vitro) was 4.18 µM, the “EC50 value (strong inhibition of SARS-CoV-2 virus)” value (SARS-CoV-2 [1]) was “sub-micromolar range” and the pEC50 (SARS-CoV-2 [1]; [10]) was 6.04.
In the case of O=C(Nc1ccc([N+](=O)[O-])cc1)c1cc(Cl)ccc1O [JMX0895], the “EC50 value (strong inhibition of SARS-CoV-2 virus)” value (SARS-CoV-2 [1]) was “sub-micromolar range” and the pEC50 (SARS-CoV-2 [1]; [10]) was 6.18.
With O=C(Nc1ccc([N+](=O)[O-])c(Cl)c1)c1cc(Cl)ccc1O [JMX0941] the “inhibitory activity in library screen” value (SARS-CoV-2 3CLpro [3]) was “prominent inhibitory activity”, the pEC50 (SARS-CoV-2 [1]; [10]) was 5.76 and the pEC50 (SARS-CoV-2 [1]; [9]) was 5.77. The side effects (SARS-CoV-2 [4]; Example 3: intranasal spray 10 mg once a day for 5 days) was “No side effects are reported”, the “SARS-CoV-2 test on the 6th day” value (SARS-CoV-2 [4]; Example 3: intranasal spray 10 mg once a day for 5 days, asymptomatic subject) was “negative for SARS-CoV-2” and the “Inhibition Type” value (SARS-CoV-2 3CLpro [5]) was “non-competitive inhibition mechanism”. The “effect on Vmax of 3CLpro” value (SARS-CoV-2 3CLpro [5]) was “reduced the Vmax values” and the “inhibition of cleavage of the TriPro substrate protein” value (SARS-CoV-2 3CLpro [6]) was “inhibited the cleavage of the TriPro substrate protein in a dose dependent manner; also recorded: inhibit the digestion of protein substrates in a dose dependent manner”.
For O=C(Nc1ccc([N+](=O)[O-])cc1Cl)c1cc(Cl)ccc1O [Niclosamide, niclosamide], the pIC50 (SARS-CoV-2 3CLpro [3]) is listed as < 4.30, the “inhibitory activity against SARS-CoV 3CLpro” value (SARS-CoV 3CLpro) is listed as “no obvious inhibitory activity” and the “inhibition of the SARS-CoV-2 3CLpro” value (SARS-CoV-2 3CLpro [8]) is listed as “does not inhibit”. The pEC50 (SARS-CoV; Vero E6 cells, read-out: EC50, SARS-CoV replication) was > 7.00 and the “concentration suppressing the cytopathic effect (CPE) of SARS-CoV” value (SARS-CoV; as low as) was 1 µM.
